From patent publication US5872148A, “Compositions useful as a cannabinoid receptor probe” (University of Connecticut, priority 1995, dated 1999) come the findings set out here.

Test [1] deals with T1, cannabinoid receptor (Rattus norvegicus, UniProt P20272).
T1 construct: membrane preparations from rat forebrains; from tissue; host or cells: rat forebrain membranes
The test can be described thus: Receptor binding assay, [^3 H]CP-55,940, rat forebrain membrane, Tris buffer with bovine serum albumin. The settings on record: for affinity for the cannabinoid receptor (in words): demonstrated by IC50 values; for IC50: rat forebrain membrane, 0.8 nM [^3 H]CP-55,940, 0.1% bovine serum albumin, pH 7.4, 1 hour at 30° C. The method, then:
The affinity of compositions of this invention for cannabinoid binding sites was tested by using membrane preparations from rat forebrains. A composition is tested by incubating various concentrations of the composition with approximately 50 μg of rat forebrain membrane, 20 mM Tris Buffer, 3 mM MgCl2, 1 mM EDTA (pH, 7.4) containing 0.1% bovine serum albumin, and 0.8 nM of the cannabinoid radioligand [^3 H]CP-55,940, (Dupont-NEN). Assays were incubated in Regisil-treated test tubes for 1 hour at 30° C. and were subsequently filtered on GF/C filters using a Brandell M-24 Cell Harvester. Following four washes with 20 mM Tris buffer (pH 7.4) and 3 mM MgCl2, the GF/C filters were collected, and shaken for 1 hour with 2 mL of 0.1% SDS. Ligand binding was counted on a Beckman liquid scintillation counter.
Non-specific binding was assessed from tubes containing 250 nM desacetyllevo-nantradol by the method described in W. A. Devane et al., Determination and Characterization of a Cannabinoid Receptor in Rat Brain, Mol. Pharmacol., 34:605 (1988). Data were collected from 3 experiments performed on 11-hydroxy-7'-azido-1',1'-dimethylheptyl-Δ^8 -THC and on 11-hydroxy-7'-isothiocyanate-1',1'-dimethyl-heptyl-Δ^8 -THC, each.

Test [2] concerns the target T1, cannabinoid receptor. The test can be described thus: Receptor inactivation test (equilibration / photoirradiation), rat forebrain membranes. Type of test: binding. To be noted: 1 hour at 30° C., azide: UV irradiated 13 minutes, washed. The method, then: The ability of affinity ligands to inactivate the cannabinoid receptor in vitro was tested through photoirradiation experiments. All procedures involving affinity ligands were conducted in the dark using only a safety light. Rat forebrain membranes (1-3 mg) in 20 mM Tris Buffer, 3 mM MgCl2, and 1 mM EDTA (pH 7.4) were incubated with an appropriate amount of either 11-hydroxy-7'-azido-1',1'-dimethylheptyl-Δ^8 -THC or 11-hydroxy-7'-isothiocyanate-1',1'-dimethyl-heptyl-Δ^8 -THC, in a six-well culture plate for 1 hour at 30° C. At the end of the equilibration membranes incubated with 11-hydroxy-7'-azido-1',1'-dimethylheptyl-Δ^8 -THC were placed on ice and irradiated for 13 minutes with UV light. Membranes incubated with either of the two compounds were then pelleted using a bench top microcentrifuge. The pellets were subsequently washed at least three times with the working buffer containing 1 mg/mL bovine serum albumin, allowing at least 10 minutes between each wash for equilibration. The final pellets were resuspended in the working buffer and assayed for cannabinoid binding activity by the method of Devane et al., referenced above.

Test [3] relates to male ICR (Institute of Cancer Research) mice. Kind of test: Sedation (decreased locomotor activity) in mice. Type of test: in vivo. The settings on record: intravenous injection; for ED50: Mus musculus, read-out: Locomotion Inhibition, potency (ED50 value). The method, then:
(§1) 5'-azido-THC was evaluated in vivo and compared to the parent compound (-)-Δ^8 -THC for cannabimimetic activity. Both analogs were tested in male ICR (Institute of Cancer Research) mice (Harlan, Frederick, Md.) following intravenous injection, for their abilities to produce sedation (decreased locomotor activity) and catalepsy (induction of ring immobility) as measures of drug-induced behavioral effects. They were also evaluated in the same mice for their abilities to produce hypothermia and antinociceptive activity in the mouse tail-flick assay.
(§2) The results obtained are shown in Table I. Dose-response data were analyzed statistically by ANOVA, and the potency (ED50 value) and efficacy (maximum effect) were determined. The maximum effects given represent percent inhibition (of locomotor activity), ° C. (of hypothermia), percent immobility (of catalepsy) and percent MPE (maximum possible effect of latency of antiociception procedure).
(§3) This evaluation was performed by methods described in M. D. Compton et al., J. Med. Chem., 34:3310 (1991), A. Makriyannis et al., Life Sci., 47:2173 (1990), and A. Charalandous et al., Pharmacol. Biochem. Behav., 40:509 (1991).

Test [4] has the same test system. The test can be described thus: Hypothermia in mice. The class given is in vivo. To be noted: for ED50: Mus musculus, read-out: Hypothermia (Δtemperature), potency (ED50 value); for ED50 / Hypothermia (Δtemperature), efficacy (maximum effect): intravenous injection, mice. On the procedure: as §1, §2, §3
For test [5] the test system is unchanged. The test can be described thus: Catalepsy (induction of ring immobility) in mice. The class given is in vivo. To be noted: for ED50: Mus musculus, read-out: Catalepsy Immobility, potency (ED50 value); for ED50 / Catalepsy Immobility, efficacy (maximum effect), percent immobility: intravenous injection, mice. On the procedure: as §1, §2, §3
Test [6] has the same test system. Kind of test: Antinociceptive activity in the mouse tail-flick assay. The class given is in vivo. The settings on record: intravenous injection; for ED50: Mus musculus, read-out: Antinociception MPE, potency (ED50 value). The method, then: as §1, §2, §3
The target of test [7] is T1, cannabinoid receptor. The test can be described thus: Alternate affinity test, [^3 H]CP-55,940, rat forebrain membrane, potassium diethyl malonate buffer with β-cyclodextrin. Type of test: binding. To be noted: 100 fmol/mL [^3 H]CP-55,940, 0.01% β-cyclodextrin, pH 7.4, 1 hour at 30° C. On the procedure:
An alternate affinity test used approximately 30 μg of rat forebrain membrane in a buffer containing 20 mM potassium diethyl malonate (pH 7.4), 3 mM MgCl2, 0.01% β-cyclodextrin, and 100 fmol/mL [^3 H]CP-55,940, (Dupont-NEN). The assays were incubated in Regisil-treated test tubes for 1 hour at 30° C. and were subsequently filtered on GF/C filters. Just prior to filtration, 200 μL of 50 mg/mL bovine serum albumin is added. Following filtration, ligand binding was counted on a Beckman liquid scintillation counter.
Non-specific binding was assessed from tubes containing 100 nM desacetyllevo-nantradol by the method described in W. A. Devane et al., Determination and Characterization of a Cannabinoid Receptor in Rat Brain, Mol. Pharmacol., 34:605 (1988).

Test [8] concerns the target T1, cannabinoid receptor. Kind of test: Alternate receptor inactivation test (equilibration and UV irradiation), rat forebrain membrane. Type of test: binding. The settings on record: 1 hour at 30° C., shortwave UV light. On the procedure:
In an alternate receptor inactivation test, 0.5-3 mg of rat forebrain membrane was incubated with (-)5'-azido-Δ^8 -THC, previously resuspended in 5% β-cyclodextrin in 12-well tissue culture plates containing 1 mL of 20 mM potassium diethyl malonate (pH 7.4) and 0.01% β-cyclodextrin. The assay was incubated for 1 hour at 30° C. and then was placed on ice and irradiated for 13 minutes with shortwave UV light from a UVGL-25 mineralight at 10 cm distance […].

Where [9] appears, read: milligram/kilogram basis, vs (-)-Δ^8 -THC.

T1 sequence (P20272 whole entry): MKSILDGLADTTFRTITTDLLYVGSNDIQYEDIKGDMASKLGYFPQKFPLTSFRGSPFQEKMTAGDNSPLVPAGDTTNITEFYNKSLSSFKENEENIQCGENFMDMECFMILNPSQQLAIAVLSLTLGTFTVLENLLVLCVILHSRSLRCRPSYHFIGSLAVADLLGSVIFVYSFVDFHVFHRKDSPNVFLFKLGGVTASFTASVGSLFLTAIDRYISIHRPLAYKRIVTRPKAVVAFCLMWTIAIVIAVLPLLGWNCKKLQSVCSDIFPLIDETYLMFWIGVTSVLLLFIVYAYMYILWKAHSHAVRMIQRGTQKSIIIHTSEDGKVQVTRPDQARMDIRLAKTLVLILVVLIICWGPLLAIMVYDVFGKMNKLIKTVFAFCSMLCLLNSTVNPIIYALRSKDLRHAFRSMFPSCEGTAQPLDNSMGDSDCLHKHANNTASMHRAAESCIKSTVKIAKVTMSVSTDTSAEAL

Consider `CC(C)(CCCCCCN=[N+]=[N-])c1cc(O)c2c(c1)OC(C)(C)[C@@H]1CC=C(CO)C[C@@H]21` [11-hydroxy-7'-azido-1',1'-dimethylheptyl-Δ^8 -THC], for which, on cannabinoid receptor [1], the “affinity for the cannabinoid receptor (in words)” value is on record as “high affinity” and the IC50 (commonly the point on the concentration scale where inhibition reaches its midpoint) was 2.5 nM. The “ability to inactivate the cannabinoid receptor in vitro” value at cannabinoid receptor [2] was “completely inactivate the cannabinoid receptor”.
Turning to `CC(C)(CCCCCCN=C=S)c1cc(O)c2c(c1)OC(C)(C)[C@@H]1CC=C(CO)C[C@@H]21` [11-hydroxy-7'-isothiocyanate-1',1'-dimethylheptyl-Δ^8 -THC], at cannabinoid receptor [1], the “affinity for the cannabinoid receptor (in words)” value is recorded as “high affinity” and the half-maximal inhibitory concentration (IC50) was 1.5 nM. The “ability to inactivate the cannabinoid receptor in vitro” value at cannabinoid receptor [2] is listed as “completely inactivate the cannabinoid receptor”.
On to `CCCCCc1cc(O)c2c(c1)OC(C)(C)[C@@H]1CC=C(C)C[C@@H]21` [(-)-Δ^8 -THC, reference compound], for which, in test [3], the ED50 (usually the dose that gives a 50% effect, or the effect in half of the subjects) stood at 1.9 mg/kg and the “Locomotion Inhibition, efficacy (maximum effect), percent inhibition” value is on record as 79%. Moreover, in test [4], the ED50 was determined as 15.5 mg/kg and the “Hypothermia (Δtemperature), efficacy (maximum effect)” value is -5.9 °C. In test [5], the ED50 is 5.2 mg/kg and the “Catalepsy Immobility, efficacy (maximum effect), percent immobility” value worked out at 58%. In addition, in test [6], the ED50 stood at 1.5 mg/kg and the “Antinociception, efficacy (maximum effect), percent MPE (maximum possible effect)” value was 100%.
As to `CC1=CC[C@@H]2[C@@H](C1)c1c(O)cc(CCCCCN=[N+]=[N-])cc1OC2(C)C` [(-)5'-azido-Δ^8 -THC], in test [3], the ED50 was 0.2 mg/kg and the “Locomotion Inhibition, efficacy (maximum effect), percent inhibition” value is 73%. Besides, in test [4], the ED50 turned out to be 0.8 mg/kg and the “Hypothermia (Δtemperature), efficacy (maximum effect)” value was -3.8 °C. In addition, the “times more potent than the parent compound (hypothermia)” value in test [4] (setting [9]) is 19 times. In test [5], the ED50 is 0.8 mg/kg and the “Catalepsy Immobility, efficacy (maximum effect), percent immobility” value is given as 57%. Further, the “times more potent than the parent compound (catalepsy)” value in test [5] (setting [9]) is 6.5 times. In test [6], the ED50 was 0.1 mg/kg and the “Antinociception, efficacy (maximum effect), percent MPE (maximum possible effect)” value is 100%. Inhibition at cannabinoid receptor [7] was half-maximal at 31 nM (IC50). Besides, on cannabinoid receptor [8], the “irreversible inactivation of the receptors” value was “did not irreversibly inactivate the receptors”; the “specific receptor binding in equilibrated and irradiated membranes” value was “no specific receptor binding was observed”.
